{"source": "ChEMBL document CHEMBL3045242", "about": "“Synthesis and Insect Growth Regulatory Activity of 1,5-Disubstituted Imidazoles with Non-terpene Chains” (Agric Biol Chem, 1991)", "key": {"[1]": {"system": "Bombyx mori", "test": "Juvenile hormone like activity in fourth-instar larvae of Bombyx mori C137 x N137 assessed as induction of precocious metamorphosis applied topically", "format": "functional"}, "[2]": {"system": "Bombyx mori", "test": "Juvenile hormone like activity in fourth-instar larvae of Bombyx mori C137 x N137 assessed as induction of precocious metamorphosis at > 40 ug/larvae applied topically", "format": "functional"}, "[3]": {"system": "Bombyx mori", "test": "Juvenile hormone like activity in fourth-instar larvae of Bombyx mori C146 x N137 assessed as induction of precocious metamorphosis at > 40 ug/larvae applied topically", "format": "functional"}, "[4]": {"system": "Bombyx mori", "test": "Juvenile hormone like activity in fourth-instar larvae of Bombyx mori C146 x N137 assessed as induction of precocious metamorphosis applied topically", "format": "functional"}, "[5]": {"system": "Bombyx mori", "test": "Juvenile hormone like activity in fourth-instar larvae of Bombyx mori C137 x N137 assessed as induction of precocious metamorphosis at > 60 ug/larvae applied topically", "format": "functional"}, "[6]": {"system": "Bombyx mori", "test": "Juvenile hormone like activity in third-instar larvae of Bombyx mori assessed as spun cocoons at fourth-instar at 5 to 160 ug applied topically", "format": "functional, organism-based"}, "[7]": {"system": "Bombyx mori", "test": "Juvenile hormone like activity in third-instar larvae of Bombyx mori assessed as spun cocoons at fifth-instar at 5 to 160 ug applied topically", "format": "functional, organism-based"}, "[8]": {"system": "Bombyx mori", "test": "Toxicity in third-instar larvae of Bombyx mori at 160 ug applied topically", "format": "organism-based", "conditions": "in vivo, topical_or_ocular"}, "[9]": {"system": "Bombyx mori", "test": "Juvenile hormone like activity in fourth-instar larvae of Bombyx mori assessed as induction of precocious metamorphosis at 40 ug/larvae applied topically", "format": "functional"}, "[10]": {"system": "Bombyx mori", "test": "Juvenile hormone like activity in fourth-instar larvae of Bombyx mori assessed as induction of precocious metamorphosis at 40 ug/larvae applied topically in presence of 0.1 ug of methoprene", "format": "functional"}, "[11]": {"system": "Bombyx mori", "test": "Juvenile hormone like activity in fourth-instar larvae of Bombyx mori assessed as induction of precocious metamorphosis at 40 ug/larvae applied topically in presence of 0.5 ug of methoprene", "format": "functional"}, "[12]": {"system": "Bombyx mori", "test": "Juvenile hormone like activity in fourth-instar larvae of Bombyx mori assessed as induction of precocious metamorphosis at 40 ug/larvae applied topically in presence of 1 ug of methoprene", "format": "functional"}, "[13]": {"system": "Bombyx mori", "test": "Juvenile hormone like activity in fourth-instar larvae of Bombyx mori assessed as induction of precocious metamorphosis at 1 ug applied topically", "format": "functional"}}, "note": "The source made the active and inactive calls. No cut-off for these calls is given here."}
{"smiles": "CC(C)n1cncc1-c1cccc(O)c1", "values": [{"measurement": "ED50", "setting": "[1]", "result": ">40", "unit": "µg"}, {"measurement": "Activity", "setting": "[2]", "result": 0, "unit": "%"}]}
{"smiles": "CC(Oc1cccc(-c2cncn2C(C)C)c1)c1ccccc1", "note": "(stereo unspecified)", "values": [{"measurement": "Activity", "setting": "[3]", "result": 0, "unit": "%"}, {"measurement": "ED50", "setting": "[4]", "result": ">40", "unit": "µg"}]}
{"smiles": "CC(C)(C)Cn1cncc1-c1cccc(OCc2ccccc2)c1", "values": [{"measurement": "ED50", "setting": "[1]", "result": 40, "unit": "µg"}, {"measurement": "Activity", "setting": "[2]", "result": 0, "unit": "%"}]}
{"smiles": "COc1cccc(COc2cccc(-c3cncn3C(C)C)c2)c1", "values": [{"measurement": "Activity", "setting": "[3]", "result": 25, "unit": "%"}, {"measurement": "ED50", "setting": "[4]", "result": ">40", "unit": "µg"}]}
{"smiles": "CC(C)=CCC/C(C)=C/COc1cccc(-c2cncn2C(C)C)c1", "values": [{"measurement": "Activity", "setting": "[3]", "result": 0, "unit": "%"}, {"measurement": "ED50", "setting": "[4]", "result": ">40", "unit": "µg"}]}
{"smiles": "COc1ccc(COc2cccc(-c3cncn3C(C)C)c2)cc1", "values": [{"measurement": "Activity", "setting": "[3]", "result": 15, "unit": "%"}, {"measurement": "ED50", "setting": "[4]", "result": ">40", "unit": "µg"}]}
{"smiles": "Cn1cncc1-c1cccc(OCc2ccccc2)c1", "values": [{"measurement": "ED50", "setting": "[1]", "result": 60, "unit": "µg"}, {"measurement": "Activity", "setting": "[5]", "result": 0, "unit": "%"}]}
{"smiles": "CC(C)n1cncc1-c1cccc(OCc2ccccc2Cl)c1", "values": [{"measurement": "Activity", "setting": "[3]", "result": 0, "unit": "%"}, {"measurement": "ED50", "setting": "[4]", "result": ">40", "unit": "µg"}]}
{"smiles": "CC(C)n1cncc1-c1ccccc1OCc1ccccc1", "values": [{"measurement": "ED50", "setting": "[1]", "result": 40, "unit": "µg"}, {"measurement": "Activity", "setting": "[2]", "result": 0, "unit": "%"}]}
{"smiles": "CC(C)n1cncc1-c1cccc(OCCc2ccccc2)c1", "values": [{"measurement": "Activity", "setting": "[3]", "result": 20, "unit": "%"}, {"measurement": "ED50", "setting": "[4]", "result": ">40", "unit": "µg"}]}
{"smiles": "CCCn1cncc1-c1cccc(OCc2ccccc2)c1", "values": [{"measurement": "ED50", "setting": "[1]", "result": 21.1, "unit": "µg"}]}
{"smiles": "COc1cccc(-c2cncn2C(C)C)c1", "values": [{"measurement": "Activity", "setting": "[3]", "result": 0, "unit": "%"}, {"measurement": "ED50", "setting": "[4]", "result": ">40", "unit": "µg"}]}
{"smiles": "CC(C)COc1cccc(-c2cncn2C(C)C)c1", "values": [{"measurement": "Activity", "setting": "[3]", "result": 35, "unit": "%"}, {"measurement": "ED50", "setting": "[4]", "result": ">40", "unit": "µg"}]}
{"smiles": "CC(C)n1cncc1-c1cccc(OCc2cccc(Cl)c2)c1", "values": [{"measurement": "Activity", "setting": "[3]", "result": 5, "unit": "%"}, {"measurement": "ED50", "setting": "[4]", "result": ">40", "unit": "µg"}]}
{"smiles": "CC(C)Cn1cncc1-c1cccc(Oc2ccccc2)c1", "values": [{"measurement": "Activity", "setting": "[6]", "result": "Active"}, {"measurement": "Activity", "setting": "[7]", "result": "Active"}, {"measurement": "ED50", "setting": "[1]", "result": 14.7, "unit": "µg"}]}
{"smiles": "CCn1cncc1-c1cccc(OCc2ccccc2)c1", "values": [{"measurement": "ED50", "setting": "[1]", "result": 30.2, "unit": "µg"}]}
{"smiles": "CCCCCCCCOc1cccc(-c2cncn2C(C)C)c1", "values": [{"measurement": "Activity", "setting": "[3]", "result": 25, "unit": "%"}, {"measurement": "ED50", "setting": "[4]", "result": ">40", "unit": "µg"}]}
{"smiles": "CC(C)Cn1cncc1-c1cccc(OCc2ccccc2)c1", "values": [{"measurement": "ED50", "setting": "[1]", "result": 28, "unit": "µg"}]}
{"smiles": "CCCCCCOc1cccc(-c2cncn2C(C)C)c1", "values": [{"measurement": "Activity", "setting": "[3]", "result": 35, "unit": "%"}, {"measurement": "ED50", "setting": "[4]", "result": ">40", "unit": "µg"}]}
{"smiles": "CCCCn1cncc1-c1cccc(OCc2ccccc2)c1", "values": [{"measurement": "ED50", "setting": "[1]", "result": 40, "unit": "µg"}, {"measurement": "Activity", "setting": "[2]", "result": 0, "unit": "%"}]}
{"smiles": "c1ccc(COc2cccc(-c3cncn3Cc3ccccc3)c2)cc1", "values": [{"measurement": "ED50", "setting": "[1]", "result": 40, "unit": "µg"}, {"measurement": "Activity", "setting": "[2]", "result": 0, "unit": "%"}]}
{"smiles": "CC(C)n1cncc1-c1ccc(OCc2ccccc2)cc1", "values": [{"measurement": "ED50", "setting": "[1]", "result": 40, "unit": "µg"}, {"measurement": "Activity", "setting": "[2]", "result": 30, "unit": "%"}]}
{"smiles": "CC(C)n1cncc1-c1cccc(Oc2ccccc2)c1", "values": [{"measurement": "ED50", "setting": "[1]", "result": 21.6, "unit": "µg"}, {"measurement": "ED50", "setting": "[4]", "result": 53.3, "unit": "µg"}]}
{"smiles": "CC(C)n1cncc1-c1cccc(OCc2ccccc2)c1", "values": [{"measurement": "Activity", "setting": "[8]", "result": "Toxic"}, {"measurement": "Activity", "setting": "[9]", "result": 100, "unit": "%"}, {"measurement": "Activity", "setting": "[6]", "result": "Active"}, {"measurement": "Activity", "setting": "[10]", "result": 70, "unit": "%"}, {"measurement": "Activity", "setting": "[7]", "result": "Active"}, {"measurement": "ED50", "setting": "[1]", "result": 0.9, "unit": "µg"}, {"measurement": "Activity", "setting": "[11]", "result": 30, "unit": "%"}, {"measurement": "Activity", "setting": "[12]", "result": 0, "unit": "%"}, {"measurement": "ED50", "setting": "[4]", "result": 13.2, "unit": "µg"}]}
{"smiles": "CC(C)=CCC/C(C)=C/COc1cccc(-c2cncn2CC(C)C)c1", "values": [{"measurement": "ED50", "setting": "[1]", "result": ">40", "unit": "µg"}, {"measurement": "Activity", "setting": "[2]", "result": 0, "unit": "%"}]}
{"smiles": "COC(C)(C)CCC[C@H](C)C/C=C/C(C)=C/C(=O)OC(C)C", "note": "[METHOPRENE]", "values": [{"measurement": "Activity", "setting": "[13]", "result": 0, "unit": "%"}]}
{"smiles": "CC(C)Cn1cncc1-c1ccc(Oc2ccccc2)cc1", "values": [{"measurement": "Activity", "setting": "[8]", "result": "Toxic"}, {"measurement": "ED50", "setting": "[1]", "result": 55.5, "unit": "µg"}]}
{"smiles": "CC(C)n1cncc1-c1cccc(OCc2ccc(Cl)cc2)c1", "values": [{"measurement": "Activity", "setting": "[3]", "result": 20, "unit": "%"}, {"measurement": "ED50", "setting": "[4]", "result": ">40", "unit": "µg"}]}
{"smiles": "CC(C)n1cncc1-c1cccc(OCc2ccc(F)cc2)c1", "values": [{"measurement": "ED50", "setting": "[4]", "result": ">40", "unit": "µg"}]}
